This passage reports IC50 results from patent US9388189B2, “Pyrrolotriazinone derivatives as PI3K inhibitors” (ALMIRALL, S.A., priority 2012, dated 2016).

Molecules are shown by their SMILES.

The target of this assay is PI3Kδ (PI3Kd) (Homo sapiens (Human), UniProt O00329). The experiment in a line: PI3K HTRF enzymatic inhibition assay (cell-free), delta isoform. The note with it: read-out: IC50 PI3Kd HTRF; recombinant PI3K delta, [ATP] 15 μM, [PIP2] 2 μM, 30 min preincubation.
Chain of PI3Kδ (PI3Kd) (O00329 whole entry, canonical isoform): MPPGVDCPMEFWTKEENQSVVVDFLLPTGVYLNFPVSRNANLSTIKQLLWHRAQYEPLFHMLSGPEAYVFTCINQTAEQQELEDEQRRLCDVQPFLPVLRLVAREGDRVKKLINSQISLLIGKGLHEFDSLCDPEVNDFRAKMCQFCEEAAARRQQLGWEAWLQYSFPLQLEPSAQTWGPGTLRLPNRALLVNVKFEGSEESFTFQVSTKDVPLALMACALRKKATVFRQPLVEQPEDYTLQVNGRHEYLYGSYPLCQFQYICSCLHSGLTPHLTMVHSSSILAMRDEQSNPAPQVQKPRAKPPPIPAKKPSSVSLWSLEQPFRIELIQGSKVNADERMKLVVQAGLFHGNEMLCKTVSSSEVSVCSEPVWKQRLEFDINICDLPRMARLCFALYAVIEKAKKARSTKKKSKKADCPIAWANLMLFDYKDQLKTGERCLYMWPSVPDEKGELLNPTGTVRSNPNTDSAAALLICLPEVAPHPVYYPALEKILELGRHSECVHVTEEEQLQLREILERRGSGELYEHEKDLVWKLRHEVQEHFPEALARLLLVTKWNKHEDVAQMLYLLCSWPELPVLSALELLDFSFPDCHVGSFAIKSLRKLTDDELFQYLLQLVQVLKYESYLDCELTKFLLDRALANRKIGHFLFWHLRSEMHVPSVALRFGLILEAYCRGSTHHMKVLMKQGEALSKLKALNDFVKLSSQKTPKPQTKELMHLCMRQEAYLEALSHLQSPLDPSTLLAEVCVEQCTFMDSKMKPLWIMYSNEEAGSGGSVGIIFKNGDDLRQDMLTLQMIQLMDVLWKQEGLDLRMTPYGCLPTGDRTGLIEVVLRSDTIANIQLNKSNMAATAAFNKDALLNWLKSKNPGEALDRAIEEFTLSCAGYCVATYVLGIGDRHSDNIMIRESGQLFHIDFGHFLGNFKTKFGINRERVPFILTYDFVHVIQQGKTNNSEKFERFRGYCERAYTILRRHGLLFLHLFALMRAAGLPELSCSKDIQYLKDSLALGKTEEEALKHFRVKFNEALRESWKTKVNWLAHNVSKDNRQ
Chain of PI3Kδ (PI3Kd) (P27986 whole entry partner, canonical isoform): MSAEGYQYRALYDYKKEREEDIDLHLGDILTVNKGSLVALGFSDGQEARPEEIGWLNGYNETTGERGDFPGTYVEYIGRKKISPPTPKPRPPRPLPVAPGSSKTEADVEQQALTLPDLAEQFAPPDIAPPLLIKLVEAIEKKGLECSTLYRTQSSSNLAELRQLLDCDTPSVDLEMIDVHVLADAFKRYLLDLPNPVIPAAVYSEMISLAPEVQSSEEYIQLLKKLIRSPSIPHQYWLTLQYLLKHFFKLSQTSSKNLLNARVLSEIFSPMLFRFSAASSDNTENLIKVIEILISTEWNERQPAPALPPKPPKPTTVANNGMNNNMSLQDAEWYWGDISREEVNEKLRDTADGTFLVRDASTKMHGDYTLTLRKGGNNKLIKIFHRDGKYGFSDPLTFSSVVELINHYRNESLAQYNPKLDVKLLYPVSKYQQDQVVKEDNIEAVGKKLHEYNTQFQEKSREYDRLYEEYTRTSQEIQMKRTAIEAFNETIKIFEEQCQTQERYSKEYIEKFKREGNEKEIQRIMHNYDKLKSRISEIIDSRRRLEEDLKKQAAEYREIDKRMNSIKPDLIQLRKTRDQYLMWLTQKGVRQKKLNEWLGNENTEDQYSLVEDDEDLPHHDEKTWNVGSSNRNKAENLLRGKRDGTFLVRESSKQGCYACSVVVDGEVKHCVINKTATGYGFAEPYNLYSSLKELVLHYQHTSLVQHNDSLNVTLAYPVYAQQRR
Source text: Compounds were screened for their ability to inhibit PI3Kα (PI3Ka), PI3Kβ (PI3Kb), PI3Kδ (PI3Kd) and PI3Kγ (PI3Kg) using a cell-free based PI3K HTRF™ assay (Millipore, ref. #33-017).
PI-3 Kinase HTRF kit (ref. #33-037) and the different PI3K recombinant isoforms (ref. #14-602, ref. #14-603, ref. #14-604, ref. #15-558 for Alpha, Beta, Delta and Gamma respectively) were purchased at Millipore (expressed in insect cells). ATP was purchased at Sigma Aldrich (ref. #A7699).
The compounds were pre-incubated with the enzyme for 30 min before starting of the catalytic reaction. [PIP2] was used at its Km. […] Time of assay and [Enzyme] were optimized to work in the linear range. Stop and Detection mixtures were used as specified in the Millipore PI-3 Kinase kit.
Reaction time and enzyme concentration in the assay will depend of each batch.
All experiments were analysed using Activity Base software from IDBS and the four-parameter log equation.
`Cc1ccn2nc([C@H](C)Nc3ncnc4[nH]cc(-c5cc(O)cc(NS(=O)(=O)CCN(C)C)c5)c34)n(-c3ccccc3)c(=O)c12` [Example 150, (S)-2-(Dimethylamino)-N-(3-hydroxy-5-(4-((1-(5-methyl-4-oxo-3-phenyl-3,4-dihydropyrrolo[2,1-f][1,2,4]triazin-2-yl)ethyl)amino)-7H-pyrrolo[2,3-d]pyrimidin-5-yl)phenyl)ethanesulfonamide]: the IC50 is 1 nM.

`Cc1ccn2nc([C@H](C)Nc3ncnc4[nH]cc(-c5cc(C(F)(F)F)nn5C)c34)n(-c3ccccc3)c(=O)c12` [Example 151, (S)-5-Methyl-2-(1-((5-(1-methyl-3-(trifluoromethyl)-1H-pyrazol-5-yl)-7H-pyrrolo[2,3-d]pyrimidin-4-yl)amino)ethyl)-3-phenylpyrrolo[2,1-f][1,2,4]triazin-4(3H)-one]: the IC50 was 5 nM.

Turning to `Cc1ccn2nc([C@H](C)Nc3ncnc(N)c3-c3ccc(N4CCN(C(=O)OC(C)(C)C)CC4)cc3)n(-c3ccccc3)c(=O)c12` [Example 152, (S)-tert-Butyl 4-(4-(4-amino-6-((1-(5-methyl-4-oxo-3-phenyl-3,4-dihydropyrrolo[2,1-f][1,2,4]triazin-2-yl)ethyl)amino)pyrimidin-5-yl)phenyl)piperazine-1-carboxylate], the IC50 amounted to 100 nM.

Take `Cc1ccn2nc([C@H](C)Nc3ncnc4[nH]cc(-c5ccn(CC(C)(C)CO)n5)c34)n(-c3ccccc3)c(=O)c12` [Example 155, (S)-2-(1-((5-(1-(3-Hydroxy-2,2-dimethylpropyl)-1H-pyrazol-3-yl)-7H-pyrrolo[2,3-d]pyrimidin-4-yl)amino)ethyl)-5-methyl-3-phenylpyrrolo[2,1-f][1,2,4]triazin-4(3H)-one]: the IC50 stood at 0.3 nM.

Consider `Cc1ccn2nc([C@H](C)Nc3ncnc(N)c3-c3cc(O)cc(C(=O)N(C)C)c3)n(-c3ccccc3)c(=O)c12` [Example 156, (S)-3-(4-Amino-6-((1-(5-methyl-4-oxo-3-phenyl-3,4-dihydropyrrolo[2,1-f][1,2,4]triazin-2-yl)ethyl)amino)pyrimidin-5-yl)-5-hydroxy-N,N-dimethyl benzamide], for which the IC50 came out at 1 nM.

Consider `COc1ncc(-c2c(N)ncnc2N[C@@H](C)c2nn3ccc(C)c3c(=O)n2-c2ccccc2)cc1NS(=O)(=O)c1ccc(O)cc1` [Example 157, (S)—N-(5-(4-Amino-6-((1-(5-methyl-4-oxo-3-phenyl-3,4-dihydropyrrolo[2,1-f][1,2,4]triazin-2-yl)ethyl)amino)pyrimidin-5-yl)-2-methoxypyridin-3-yl)-4-hydroxybenzenesulfonamide], for which the IC50 worked out at 0.2 nM.

With `Cc1ccn2nc([C@H](C)Nc3ncnc4[nH]cc(-c5ccn(Cc6ccccc6O)n5)c34)n(-c3ccccc3)c(=O)c12` [Example 159, (S)-2-(1-((5-(1-(2-Hydroxybenzyl)-1H-pyrazol-3-yl)-7H-pyrrolo[2,3-d]pyrimidin-4-yl)amino)ethyl)-5-methyl-3-phenylpyrrolo[2,1-f][1,2,4]triazin-4(3H)-one], the IC50 worked out at 4 nM.

In the case of `Cc1ccn2nc([C@H](C)Nc3ncnc(N)c3-c3ccc(N4CCNCC4)cc3)n(-c3ccccc3)c(=O)c12` [Example 162, (S)-2-(1-((6-Amino-5-(4-(piperazin-1-yl)phenyl)pyrimidin-4-yl)amino)ethyl)-5-methyl-3-phenylpyrrolo[2,1-f][1,2,4]triazin-4(3H)-one], the IC50 was determined as 132 nM.

On to `Cc1ccn2nc([C@H](C)Nc3ncnc4[nH]cc(-c5ccn(-c6cccc(O)c6)n5)c34)n(-c3ccccc3)c(=O)c12` [Example 163, (S)-2-(1-((5-(1-(3-Hydroxyphenyl)-1H-pyrazol-3-yl)-7H-pyrrolo[2,3-d]pyrimidin-4-yl)amino)ethyl)-5-methyl-3-phenylpyrrolo[2,1-f][1,2,4]triazin-4(3H)-one], for which the IC50 came to 0.2 nM.

On to `C[C@H](Nc1ncnc2[nH]cc(-c3cc(NS(C)(=O)=O)cc4[nH]ccc34)c12)c1nn2cccc2c(=O)n1-c1ccccc1` [Example 165, (S)—N-(4-(4-((1-(4-Oxo-3-phenyl-3,4-dihydropyrrolo[2,1-f][1,2,4]triazin-2-yl)ethyl)amino)-7H-pyrrolo[2,3-d]pyrimidin-5-yl)-1H-indol-6-yl)methanesulfonamide], for which the IC50 is 5 nM.

As to `Cc1ccn2nc([C@H](C)Nc3ncnc(N)c3-c3cccc(C(=O)Nc4cccc(O)c4)c3)n(-c3ccccc3)c(=O)c12` [Example 168, (S)-3-(4-Amino-6-((1-(5-methyl-4-oxo-3-phenyl-3,4-dihydropyrrolo[2,1-f][1,2,4]triazin-2-yl)ethyl)amino)pyrimidin-5-yl)-N-(3-hydroxyphenyl)benzamide], the IC50 was determined as 2 nM.

In the case of `Cc1ccn2nc(CNc3ncnc(N)c3-c3cncc(C(F)F)c3)n(-c3ccccc3)c(=O)c12` [Example 169, 2-(((6-Amino-5-(5-(difluoromethyl)pyridin-3-yl)pyrimidin-4-yl)amino)methyl)-5-methyl-3-phenylpyrrolo[2,1-f][1,2,4]triazin-4(3H)-one], the half-inhibitory concentration (IC50) was found to be 3 nM.

Take `Cc1ccn2nc([C@H](C)Nc3ncnc(N)c3-c3cc(O)c4ccn(S(=O)(=O)c5ccc(O)cc5F)c4c3)n(-c3ccccc3)c(=O)c12` [Example 171, (S)-2-(1-((6-Amino-5-(1-((2-fluoro-4-hydroxyphenyl)sulfonyl)-4-hydroxy-1H-indol-6-yl)pyrimidin-4-yl)amino)ethyl)-5-methyl-3-phenylpyrrolo[2,1-f][1,2,4]triazin-4(3H)-one]: the IC50 was determined as 5 nM.

Consider `Cc1ccn2nc([C@H](C)Nc3ncnc4[nH]cc(-c5cc(O)cc(NC(N)=O)c5)c34)n(-c3ccccc3)c(=O)c12` [Example 175, (S)-1-(3-Hydroxy-5-(4-((1-(5-methyl-4-oxo-3-phenyl-3,4-dihydropyrrolo[2,1-f][1,2,4]triazin-2-yl)ethyl)amino)-7H-pyrrolo[2,3-d]pyrimidin-5-yl)phenyl)urea], for which the IC50 came to 0.3 nM.

Consider `C[C@H](Nc1ncnc2[nH]cc(-c3cc(NS(C)(=O)=O)cc(OS(C)(=O)=O)c3)c12)c1nn2cccc2c(=O)n1-c1ccccc1` [Example 176, (S)-3-(Methylsulfonamido)-5-(4-((1-(4-oxo-3-phenyl-3,4-dihydropyrrolo[2,1-f][1,2,4]triazin-2-yl)ethyl)amino)-7H-pyrrolo[2,3-d]pyrimidin-5-yl)phenyl methanesulfonate], for which the IC50 is 1 nM.

For the compound `Cc1ccn2nc([C@H](C)Nc3ncnc4[nH]cc(-c5cc(NS(C)(=O)=O)cc6[nH]ncc56)c34)n(-c3ccccc3)c(=O)c12` [Example 181, (S)—N-(4-(4-((1-(5-Methyl-4-oxo-3-phenyl-3,4-dihydropyrrolo[2,1-f][1,2,4]triazin-2-yl)ethyl)amino)-7H-pyrrolo[2,3-d]pyrimidin-5-yl)-1H-indazol-6-yl)methanesulfonamide], the half-inhibitory concentration (IC50) came out at 5 nM.

On to `CCOc1ncc(-c2c(N)ncnc2N[C@@H](C)c2nn3ccc(C)c3c(=O)n2-c2ccccc2)cc1NS(=O)(=O)c1ccc(O)cc1` [Example 187, (S)—N-(5-(4-Amino-6-((1-(5-methyl-4-oxo-3-phenyl-3,4-dihydropyrrolo[2,1-f][1,2,4]triazin-2-yl)ethyl)amino)pyrimidin-5-yl)-2-ethoxypyridin-3-yl)-4-hydroxybenzenesulfonamide], for which the IC50 came to 0.7 nM.
